{"source": "patent US12077503B2", "about": "“Substituted cyclic amides and their use as herbicides” (FMC CORPORATION, priority 2015, dated 2024)", "type_in_all_cases": "in vivo", "key": {"[1]": {"system": "barnyardgrass (Echinochloa crus-galli)", "assay": "Test A preemergence", "conditions": "preemergence", "procedure,_shortened": "(§1)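 In a loam soil and sand blend, planted seeds got a preemergence directed soil spray, and young plants at the one- to two-leaf stage, 2–10 cm high, got a postemergence application; ~10 d greenhouse hold; injury rated visually, 0 = none, 100 = complete control.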"}, "Kochia (Kochia scoparia) [2]": {"system": "Kochia (Kochia scoparia)", "assay": "Test A preemergence", "conditions": "preemergence", "procedure,_shortened": "as §1"}, "[3]": {"system": "ryegrass, Italian (Italian ryegrass, Lolium multiflorum)", "assay": "Test A preemergence", "conditions": "preemergence", "procedure,_shortened": "as §1"}, "[4]": {"system": "giant foxtail (Setaria faberii)", "assay": "Test A preemergence", "conditions": "preemergence", "procedure,_shortened": "as §1"}, "[5]": {"system": "ragweed (common ragweed, Ambrosia elatior)", "assay": "Test A preemergence", "conditions": "preemergence", "procedure,_shortened": "as §1"}, "[6]": {"system": "pigweed (Amaranthus retroflexus)", "assay": "Test A preemergence", "conditions": "preemergence"}, "[7]": {"system": "barnyardgrass (Echinochloa crus-galli)", "assay": "Test B flooded paddy test", "conditions": "Flood, 500 g ai/ha; 0 to 100 scale where 0 is no effect and 100 is complete control; 13 to 15 d", "procedure,_shortened": "(§2)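 Flooding to 3 cm over soil accompanied treatment, which consisted of adding compound to the standing water around 2-leaf plants; depth was then maintained. Visual assessment versus controls followed at 13 to 15 d (scale 0–100, 0 meaning no effect).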"}, "rice (Oryra sativa)": {"system": "rice (Oryra sativa)", "assay": "Test B flooded paddy test", "conditions": "Flood, 500 g ai/ha; 0 to 100 scale where 0 is no effect and 100 is complete control; 13 to 15 d", "procedure,_shortened": "as §2"}, "[8]": {"system": "ducksalad (Heteranthera limosa)", "assay": "Test B flooded paddy test", "conditions": "Flood, 500 g ai/ha; 0 to 100 scale where 0 is no effect and 100 is complete control; 13 to 15 d", "procedure,_shortened": "as §2"}, "[9]": {"system": "sedge, umbrella (small-flower umbrella sedge, Cyperus difformis)", "assay": "Test B flooded paddy test", "conditions": "Flood, 500 g ai/ha; 0 to 100 scale where 0 is no effect and 100 is complete control; 13 to 15 d", "procedure,_shortened": "as §2"}, "[10]": {"system": "barnyardgrass (Echinochloa crus-galli)", "assay": "Test A postemergence", "conditions": "postemergence, 0 to 100 scale (0 no effect, 100 complete control)", "procedure,_shortened": "as §1"}, "corn (Zea mays)": {"system": "corn (Zea mays)", "assay": "Test A postemergence", "conditions": "postemergence, 0 to 100 scale (0 no effect, 100 complete control)", "procedure,_shortened": "as §1"}, "Kochia (Kochia scoparia) [11]": {"system": "Kochia (Kochia scoparia)", "assay": "Test A postemergence", "conditions": "postemergence, 0 to 100 scale (0 no effect, 100 complete control)", "procedure,_shortened": "as §1"}, "[12]": {"system": "blackgrass (Alopecurus myosuroides)", "assay": "Test A postemergence", "conditions": "postemergence, 0 to 100 scale (0 no effect, 100 complete control)", "procedure,_shortened": "as §1"}, "[13]": {"system": "ryegrass, Italian (Italian ryegrass, Lolium multiflorum)", "assay": "Test A postemergence", "conditions": "postemergence, 0 to 100 scale (0 no effect, 100 complete control)", "procedure,_shortened": "as §1"}, "[14]": {"system": "giant foxtail (Setaria faberii)", "assay": "Test A postemergence", "conditions": "postemergence, 0 to 100 scale (0 no effect, 100 complete control)", "procedure,_shortened": "as §1"}, "[15]": {"system": "Galium (catchweed bedstraw, Galium aparine)", "assay": "Test A postemergence", "conditions": "postemergence, 0 to 100 scale (0 no effect, 100 complete control)", "procedure,_shortened": "as §1"}, "[16]": {"system": "ragweed (common ragweed, Ambrosia elatior)", "assay": "Test A postemergence", "conditions": "postemergence, 0 to 100 scale (0 no effect, 100 complete control)", "procedure,_shortened": "as §1"}, "[17]": {"system": "pigweed (Amaranthus retroflexus)", "assay": "Test A postemergence", "conditions": "postemergence, 0 to 100 scale (0 no effect, 100 complete control)", "procedure,_shortened": "as §1"}, "[18]": {"system": "wheat (Triticum aestivum)", "assay": "Test A postemergence", "conditions": "postemergence, 0 to 100 scale (0 no effect, 100 complete control)", "procedure,_shortened": "as §1"}, "[19]": {"conditions": "125 g ai/ha, visual rating after approx. 10 d, 0 to 100 scale where 0 is no effect and 100 is complete control"}, "[20]": {"conditions": "500 g ai/ha, 0 to 100 scale, 0 = no effect, 100 = complete control"}, "[21]": {"conditions": "125 g ai/ha, visual injury after approximately 10 d"}, "[22]": {"conditions": "500 g ai/ha, visual injury, approx. 10 d"}}, "data": [{"smiles": "O=C1NCC(c2cccc3ccccc23)C1C(=O)Nc1ccccc1C(F)(F)F", "note": "(racemic) [Compound 712]", "values": [{"measurement": "Plant response rating, Barnyardgrass", "setting": "[1]; [19]", "result": 0}, {"measurement": "Plant response rating, Barnyardgrass", "setting": "[1]; [20]", "result": 0}, {"measurement": "Plant response rating, Kochia", "setting": "Kochia (Kochia scoparia) [2]; [19]", "result": 0}, {"measurement": "Plant response rating, Kochia", "setting": "Kochia (Kochia scoparia) [2]; [20]", "result": 0}, {"measurement": "Plant response rating, Ryegrass, Italian", "setting": "[3]; [19]", "result": 0}, {"measurement": "Plant response rating, Ryegrass, Italian", "setting": "[3]; [20]", "result": 0}, {"measurement": "Plant response rating, Foxtail, Giant", "setting": "[4]; [19]", "result": 0}, {"measurement": "Plant response rating, Foxtail, Giant", "setting": "[4]; [20]", "result": 0}, {"measurement": "Plant response rating, Ragweed", "setting": "[5]; [19]", "result": 0}, {"measurement": "Plant response rating, Ragweed", "setting": "[5]; [20]", "result": 0}, {"measurement": "Plant response rating, Pigweed", "setting": "[6]; [19]", "result": 0}, {"measurement": "Plant response rating, Pigweed", "setting": "[6]; [20]", "result": 0}, {"measurement": "Plant response rating, Barnyardgrass", "setting": "[7]", "result": 0}, {"measurement": "Plant response rating, Rice", "setting": "rice (Oryra sativa)", "result": 0}, {"measurement": "Plant response rating, Ducksalad", "setting": "[8]", "result": 0}, {"measurement": "Plant response rating, Sedge, Umbrella", "setting": "[9]", "result": 0}, {"measurement": "Plant response rating, Barnyardgrass", "setting": "[10]; [21]", "result": 0}, {"measurement": "Plant response rating, Barnyardgrass", "setting": "[10]; [22]", "result": 0}, {"measurement": "Plant response rating, Corn", "setting": "corn (Zea mays); [21]", "result": 0}, {"measurement": "Plant response rating, Corn", "setting": "corn (Zea mays); [22]", "result": 0}, {"measurement": "Plant response rating, Kochia", "setting": "Kochia (Kochia scoparia) [11]; [21]", "result": 0}, {"measurement": "Plant response rating, Kochia", "setting": "Kochia (Kochia scoparia) [11]; [22]", "result": 0}, {"measurement": "Plant response rating, Blackgrass", "setting": "[12]; [21]", "result": 0}, {"measurement": "Plant response rating, Blackgrass", "setting": "[12]; [22]", "result": 0}, {"measurement": "Plant response rating, Ryegrass, Italian", "setting": "[13]; [21]", "result": 0}, {"measurement": "Plant response rating, Ryegrass, Italian", "setting": "[13]; [22]", "result": 0}, {"measurement": "Plant response rating, Foxtail, Giant", "setting": "[14]; [21]", "result": 0}, {"measurement": "Plant response rating, Foxtail, Giant", "setting": "[14]; [22]", "result": 0}, {"measurement": "Plant response rating, Galium", "setting": "[15]; [21]", "result": 0}, {"measurement": "Plant response rating, Galium", "setting": "[15]; [22]", "result": 0}, {"measurement": "Plant response rating, Ragweed", "setting": "[16]; [21]", "result": 0}, {"measurement": "Plant response rating, Ragweed", "setting": "[16]; [22]", "result": 0}, {"measurement": "Plant response rating, Pigweed", "setting": "[17]; [21]", "result": 0}, {"measurement": "Plant response rating, Pigweed", "setting": "[17]; [22]", "result": 0}, {"measurement": "Plant response rating, Wheat", "setting": "[18]; [21]", "result": 0}, {"measurement": "Plant response rating, Wheat", "setting": "[18]; [22]", "result": 0}]}, {"smiles": "O=C1NCC(c2cccc3ccccc23)C1C(=O)Nc1cccc(F)c1F", "note": "(racemic) [Compound 711]", "values": [{"measurement": "Plant response rating, Barnyardgrass", "setting": "[1]; [19]", "result": 0}, {"measurement": "Plant response rating, Barnyardgrass", "setting": "[1]; [20]", "result": 0}, {"measurement": "Plant response rating, Kochia", "setting": "Kochia (Kochia scoparia) [2]; [19]", "result": 0}, {"measurement": "Plant response rating, Kochia", "setting": "Kochia (Kochia scoparia) [2]; [20]", "result": 0}, {"measurement": "Plant response rating, Ryegrass, Italian", "setting": "[3]; [19]", "result": 0}, {"measurement": "Plant response rating, Ryegrass, Italian", "setting": "[3]; [20]", "result": 0}, {"measurement": "Plant response rating, Foxtail, Giant", "setting": "[4]; [19]", "result": 0}, {"measurement": "Plant response rating, Foxtail, Giant", "setting": "[4]; [20]", "result": 0}, {"measurement": "Plant response rating, Ragweed", "setting": "[5]; [19]", "result": 0}, {"measurement": "Plant response rating, Ragweed", "setting": "[5]; [20]", "result": 0}, {"measurement": "Plant response rating, Pigweed", "setting": "[6]; [19]", "result": 0}, {"measurement": "Plant response rating, Pigweed", "setting": "[6]; [20]", "result": 0}, {"measurement": "Plant response rating, Barnyardgrass", "setting": "[7]", "result": 0}, {"measurement": "Plant response rating, Rice", "setting": "rice (Oryra sativa)", "result": 0}, {"measurement": "Plant response rating, Ducksalad", "setting": "[8]", "result": 60}, {"measurement": "Plant response rating, Sedge, Umbrella", "setting": "[9]", "result": 0}, {"measurement": "Plant response rating, Barnyardgrass", "setting": "[10]; [21]", "result": 0}, {"measurement": "Plant response rating, Barnyardgrass", "setting": "[10]; [22]", "result": 0}, {"measurement": "Plant response rating, Corn", "setting": "corn (Zea mays); [21]", "result": 0}, {"measurement": "Plant response rating, Corn", "setting": "corn (Zea mays); [22]", "result": 0}, {"measurement": "Plant response rating, Kochia", "setting": "Kochia (Kochia scoparia) [11]; [21]", "result": 0}, {"measurement": "Plant response rating, Kochia", "setting": "Kochia (Kochia scoparia) [11]; [22]", "result": 0}, {"measurement": "Plant response rating, Blackgrass", "setting": "[12]; [21]", "result": 0}, {"measurement": "Plant response rating, Blackgrass", "setting": "[12]; [22]", "result": 0}, {"measurement": "Plant response rating, Ryegrass, Italian", "setting": "[13]; [21]", "result": 0}, {"measurement": "Plant response rating, Ryegrass, Italian", "setting": "[13]; [22]", "result": 0}, {"measurement": "Plant response rating, Foxtail, Giant", "setting": "[14]; [21]", "result": 0}, {"measurement": "Plant response rating, Foxtail, Giant", "setting": "[14]; [22]", "result": 0}, {"measurement": "Plant response rating, Galium", "setting": "[15]; [21]", "result": 0}, {"measurement": "Plant response rating, Galium", "setting": "[15]; [22]", "result": 0}, {"measurement": "Plant response rating, Ragweed", "setting": "[16]; [21]", "result": 0}, {"measurement": "Plant response rating, Ragweed", "setting": "[16]; [22]", "result": 0}, {"measurement": "Plant response rating, Pigweed", "setting": "[17]; [21]", "result": 0}, {"measurement": "Plant response rating, Pigweed", "setting": "[17]; [22]", "result": 0}, {"measurement": "Plant response rating, Wheat", "setting": "[18]; [21]", "result": 0}, {"measurement": "Plant response rating, Wheat", "setting": "[18]; [22]", "result": 0}]}]}
